Source: patent publication US20210177889A1, “GASEOUS PHARMACEUTICAL COMPOSITION FOR HYPERTENSION THERAPY” (KEIO UNIVERSITY, priority 2019, published 2021)

Tests used:
[1] = system: hypertension established after 5/6 nephrectomy; assay: Therapeutic effect of delayed H2 inhalation on hypertension established after 5/6 nephrectomy (tail-cuff); format: in vivo, Lewis rat; conditions: N=17
Method: At about 24 hours after the final gas inhalation of 5/6 nephrectomized rats, blood pressure and heart rate were non-invasively measured using the tail-cuff pressure measurement method (BP-98A, Softron). The hemodynamics parameter was measured three times, and the median was adopted as the representative value. In order to elicit renal hypertension, 5/6 nephrectomy was carried out with slight modification to previously described methods (Nephrology (Carlton) 19, 552-561; 10.1111/nep.12279 (2014); J. Am. Soc. Nephrol. 4, 2023-2031 (1994); and Kidney Int. 40, 29-34; 10.1038/ki.1991.175 (1991).). Briefly, rats were anesthetized by isoflurane inhalation (induction at 4% and maintenance at 1.5%), and upper midline laparotomy of about 4 cm was carried out. Surgical operation was performed under a microscope, the left renal artery branch was identified, and selectively ligated with 7-0 silk at a position as close as possible to the left kidney so that macroscopic infarction is caused in about ⅔ of the left renal cortex. In the first pilot research (FIGS. 1a and 2), a high-temperature cautery pen (AA11, Bovie, Tenn., U.S.A.) was used to add the resection of the infarcted portion of the kidney. Subsequently, the right renal artery, the renal vein, and the urinary duct was ligated with 4-0 silk, and the right kidney were resected. […]

[2] = system: hypertension attributed to 5/6 nephrectomy; assay: Continuous telemetry blood pressure monitoring after 5/6 nephrectomy with daily H2 inhalation; format: in vivo, Lewis rat
Source text: In order to monitor continuous blood pressure fluctuation, telemetry transmitters were implanted into rats. Specifically, rats were anesthetized with isoflurane, and the left groin was disinfected with 1% chlorhexidine. An incision of about 1.5 cm was made in the left groin, the left femoral artery was exposed, and a telemetry transmitter (HD-S10, Physiotel HD Telemetry, Data Science International) catheter was inserted into the left femoral artery. The tip of the transmitter catheter was placed in the abdominal aorta caudally from the branch of the renal artery. The transmitter body was inserted into a subcutaneous pocket made in the left lower back, and the skin was sutured. All surgical intervention was performed under sterile conditions. In order to elicit renal hypertension, 5/6 nephrectomy was carried out with slight modification to previously described methods (Nephrology (Carlton) 19, 552-561; 10.1111/nep.12279 (2014); J. Am. Soc. Nephrol. 4, 2023-2031 (1994); and Kidney Int. 40, 29-34; 10.1038/ki.1991.175 (1991).). Briefly, rats were anesthetized by isoflurane inhalation (induction at 4% and maintenance at 1.5%), and upper midline laparotomy of about 4 cm was carried out. Surgical operation was performed under a microscope, the left renal artery branch was identified, and selectively ligated with 7-0 silk at a position as close as possible to the left kidney so that macroscopic infarction is caused in about ⅔ of the left renal cortex. In the first pilot research (FIGS. 1a and 2), a high-temperature cautery pen (AA11, Bovie, Tenn., U.S.A.) was used to add the resection of the infarcted portion of the kidney. Subsequently, the right renal artery, the renal vein, and the urinary duct was ligated with 4-0 silk, and the right kidney were resected. The abdominal wall and the skin were closed with a 4-0 nylon thread. The anesthetic time was uniformly 30 minutes in all rats. H2 gas (1.3% H2+21% O2+77.7 N2) and control gas (21% O2+79% N2) were filled into gas cylinders in advance at a factory. The H2 group and the control group were allowed to inhale the H2 gas and the control gas that were mixed in advance. All animals were allowed to inhale the assigned gas at 10 L/minute for 1 hour in an established anesthesia box, and inhaled for an additional three minutes to purge the box (i.e. a total of 63 minutes). In the nephrectomy model and SHR, gas inhalation was repeated every day for 4 weeks and 2 weeks, respectively. In order to investigate the time course necessary for H2 gas to exert therapeutic effect, rats implanted with telemetry (8 weeks-old; 3 for each group) were subjected to 5/6 nephrectomy, and the blood pressure fluctuation was continuously monitored (FIG. 1b). In the first gas inhalation immediately after 5/6 nephrectomy, the blood pressure of the H2 gas group was reduced compared to the control group (117.4±1.8 mmHg vs. 125.6±4.7 mmHg, P=0.04). […] Before the start of inhalation on Day 2, there was no difference in blood pressure between the two groups. […] To examine the anti-hypertensive effect of H2 in more detail, chronic and continuous monitoring of blood pressure using a non-invasive method with a wireless implantable telemetry system (FIG. 5a) was conducted. Gas inhalation was started on the day of 5/6 nephrectomy and continued for 4 weeks. Again, there was no difference in the time course of change in renal function between the two groups.

[2H][2H] [H2 gas, Molecular hydrogen (H2)]
duration of hypotensive effect ([1]; delayed inhalation, one hour daily for 4 weeks): continued through the inhalation duration | blood pressure (established hypertension) ([1]; inhalation started 3 weeks after 5/6 nephrectomy, one week after starting H2 inhalation, no statistically significant difference): began to decrease | time course of change in renal function between the two groups ([2]; 5/6 nephrectomy, 4 weeks of gas inhalation): no difference | blood pressure before inhalation compared to the control group ([2]; after Week 1 of daily inhalation, telemetry): began to decrease | difference in blood pressure between H2 and control groups when inhalation was stopped ([2]; after the first gas inhalation, telemetry): immediately disappeared | blood pressure in the first gas inhalation ([2]; first inhalation immediately after 5/6 nephrectomy, telemetry, N=3, P=0.04 vs control (125.6±4.7)): 117.4±1.8 mmHg | decrease in blood pressure with longer period of gas inhalation vs control 5/6 nephrectomy ([2]; inhalation from the day of 5/6 nephrectomy for 4 weeks, telemetry, P<0.05): greater decrease | difference in blood pressure between the two groups before the start of inhalation on Day 2 ([2]; telemetry, before inhalation, Day 2): no difference
